From ChEMBL document CHEMBL6092168, “Identification of novel indolinone derivatives as CTSC inhibitors to treat inflammatory bowel disease by modulating inflammatory factors” (Eur J Med Chem, 2024)
Activity calls are given as the source filed them. No cut-off for these calls is given here.

Columns and labels:
[1] = test system: Mus musculus; assay: Anti-inflammatory activity in DSS-induced ulcerative colitis male C57BL/6 mouse model assessed as reduction in IL-1 beta expression in colon administered via gavage for 10 days by ELISA; type: functional, organism-based; conditions: dose 15-60 mg/kg, time 10.0 day
[2] = Half life in male Sprague-Dawley rat at 10 mg/kg, po measured at 5 to 1440 mins by LC-MS/MS analysis; type: ADME, organism-based; conditions: in vivo, time 5-1440 min
[3] = molecular target: T1, Cathepsin G (Mus musculus) (UniProt P28293); assay: In vivo inhibition of Cathepsin G in C57BL/6 mouse assessed as reduction in cathepsin G activity in bone marrow at 30 mg/kg, po administered once daily for 6 days by fluorescence based microplate reader relative to control; type: functional, organism-based; conditions: time 6.0 day
T1 sequence (whole entry): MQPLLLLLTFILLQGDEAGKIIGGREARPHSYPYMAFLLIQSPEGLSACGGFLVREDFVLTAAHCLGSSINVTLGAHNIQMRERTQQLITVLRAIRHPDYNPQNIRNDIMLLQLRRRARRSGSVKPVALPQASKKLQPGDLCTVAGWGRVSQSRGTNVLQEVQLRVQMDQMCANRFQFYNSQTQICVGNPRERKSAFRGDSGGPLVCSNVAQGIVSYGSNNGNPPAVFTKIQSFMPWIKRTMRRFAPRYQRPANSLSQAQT

[4] = Acute toxicity in ICR mouse assessed as heart pathological change at 1500 mg/kg, po administered daily for 7 days by H and E staining based analysis; type: organism-based; conditions: in vivo, 168 h, time 7 day
[5] = MRT in male Sprague-Dawley rat at 2 mg/kg, iv measured at 5 to 1440 mins by LC-MS/MS analysis; type: ADME, organism-based; conditions: in vivo, time 5-1440 min
[6] = Acute toxicity in ICR mouse assessed as body weight loss at 1500 mg/kg, po administered daily for 7 days; type: organism-based; conditions: in vivo, 168 h, time 7 day
[7] = molecular target: T2, Myeloblastin (Mus musculus) (UniProt Q61096); assay: Induction of proteinase 3 degradation in C57BL/6 mouse bone marrow cells assessed as residual activity at 10 uM incubated for 48 hrs by Western blot analysis relative to control; type: cell-based; conditions: Bone marrow cell
T2 sequence (whole entry): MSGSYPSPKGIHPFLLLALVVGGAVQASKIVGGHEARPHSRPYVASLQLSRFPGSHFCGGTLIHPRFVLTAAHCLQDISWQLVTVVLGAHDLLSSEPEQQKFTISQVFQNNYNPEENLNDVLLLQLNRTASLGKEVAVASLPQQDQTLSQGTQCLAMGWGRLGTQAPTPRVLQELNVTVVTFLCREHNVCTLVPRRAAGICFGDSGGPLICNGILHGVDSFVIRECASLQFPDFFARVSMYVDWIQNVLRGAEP

[8] = test system: RAW264.7; assay: Anti-inflammatory activity in LPS-stimulated mouse RAW264.7 cells assessed as reduction in TNF-alpha production incubated for 24 hrs by ELISA; type: functional, cell-based; conditions: dose 0.62-5 µM
[9] = molecular target: T1, Cathepsin G (Mus musculus); assay: Induction of Cathepsin G degradation in C57BL/6 mouse bone marrow cells at 10 uM incubated for 24 hrs by Western blot analysis; type: cell-based; conditions: Bone marrow cell
[10] = test system: Mus musculus; assay: Anti-inflammatory activity in DSS-induced ulcerative colitis male C57BL/6 mouse model assessed as increase in IL-10 expression in serum administered via gavage for 10 days by ELISA; type: functional, organism-based; conditions: dose 15-60 mg/kg, time 10.0 day
[11] = test system: Mus musculus; assay: Anti-inflammatory activity in DSS-induced ulcerative colitis male C57BL/6 mouse model assessed as reduction in neutrophil elastase level in serum at 15 to 30 mg/kg administered via gavage for 10 days; type: functional, organism-based; conditions: dose 15-30 mg/kg, time 10.0 day
[12] = Acute toxicity in ICR mouse assessed as change in white blood cell count in blood at 1500 mg/kg, po administered daily for 7 days; type: organism-based; conditions: in vivo, 168 h, time 7 day
[13] = Cmax in male Sprague-Dawley rat at 2 mg/kg, iv measured at 5 to 1440 mins by LC-MS/MS analysis; type: ADME, organism-based; conditions: in vivo, time 5-1440 min
[14] = test system: RAW264.7; assay: Anti-inflammatory activity in mouse RAW264.7 cells assessed as inhibition of LPS-induced TNF-alpha production at 5 uM preincubated for 1 hr followed by LPS addition and measured after 24 hrs by ELISA relative to control; type: functional; parameters: scale not given: the % may be the effect or the level left; conditions: time 25 hrs
[15] = molecular target: T3, Neutrophil elastase (Mus musculus) (UniProt Q3UP87); assay: In vivo inhibition of neutrophil elastase in C57BL/6 mouse assessed as reduction in neutrophil elastase activity in bone marrow at 30 mg/kg, po administered once daily for 6 days by fluorescence based microplate reader relative to control; type: functional, organism-based; conditions: time 6.0 day
T3 sequence (whole entry): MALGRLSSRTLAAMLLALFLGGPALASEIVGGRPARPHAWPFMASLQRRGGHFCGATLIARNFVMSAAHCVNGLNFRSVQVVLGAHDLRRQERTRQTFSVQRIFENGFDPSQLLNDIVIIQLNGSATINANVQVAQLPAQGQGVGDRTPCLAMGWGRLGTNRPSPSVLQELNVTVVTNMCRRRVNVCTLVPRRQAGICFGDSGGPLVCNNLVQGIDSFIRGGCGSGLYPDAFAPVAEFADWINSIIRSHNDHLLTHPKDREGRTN

[16] = molecular target: T1, Cathepsin G (Mus musculus); assay: Induction of Cathepsin G degradation in C57BL/6 mouse bone marrow cells assessed as remaining activity at 10 uM incubated for 12 hrs by Western blot analysis relative to control; type: cell-based; conditions: Bone marrow cell
[17] = molecular target: T4, Neutrophil elastase (Homo sapiens) (UniProt P08246); assay: Inhibition of neutrophil elastase in human U-937 cells using N-MeSuc-Ala-Pro-Val-pNA as substrate at 10 uM incubated for 5 days by […] based microplate reader analysis relative to control; type: cell-based; conditions: time 5.0 day
T4 sequence (whole entry): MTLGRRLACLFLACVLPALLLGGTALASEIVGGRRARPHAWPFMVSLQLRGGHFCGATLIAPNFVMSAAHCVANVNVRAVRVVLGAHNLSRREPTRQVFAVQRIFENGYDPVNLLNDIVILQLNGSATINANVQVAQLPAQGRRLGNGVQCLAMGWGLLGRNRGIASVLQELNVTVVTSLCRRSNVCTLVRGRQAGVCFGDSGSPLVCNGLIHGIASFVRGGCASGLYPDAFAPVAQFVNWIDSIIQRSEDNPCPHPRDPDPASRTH

[18] = Acute toxicity in ICR mouse assessed as lung pathological change at 1500 mg/kg, po administered daily for 7 days by H and E staining based analysis; type: organism-based; conditions: in vivo, 168 h, time 7 day

O=C1Nc2c(cccc2-c2ccc(NC3CCOCC3)cc2)/C1=C/c1ccnc2ccccc12
Activity [1]: Dose-dependent-effect; Significant Reduction Observed In High Dose Group
half-life [2]: 1.76 h
inhibition [3]: 55.2%
Activity [4]: Non-toxic
MRT [5]: 10.48 h
Activity [6]: Non-toxic
Activity [7]: 8.71%
Activity [8]: Dose-dependent-effect
Activity [9]: Active
Activity [10]: Dose-dependent-effect; Significant Increase Observed In High Dose Group
Activity [11]: inactive
Activity [12]: Non-toxic
Cmax [13]: 309 ng/mL
Activity [14]: 83.6%
inhibition [15]: 59.1%
Activity [16]: 75%
inhibition [17]: 24.5%
Activity [18]: Non-toxic
